Structures are written as SMILES. In brackets after ≈: the same amount, converted by molar mass. Several values for one entry are separate records, joined by “and”; a condition that tells them apart may be missing. Identical values can stand only once. Bounds are passed on as bounds.

For series [1], the system named is Bacillus subtilis Marburg. The series can be described thus: MIC99 on solid medium, B. subtilis. The format is cell-based. Particulars: nutrient agar, 28 °C, 3–4 days.
The subject of series [2] is Pseudomonas aeruginosa HER1018 (PAO1). The series can be described thus: MIC99 on solid medium, P. aeruginosa. Conditions: PAO1, 24 h, tryptic soy agar, 1 day. The format is cell-based.
Another series concerns HepG2 cells. Kind of series: Cytotoxicity against HepG2 cell line (CellTiter-Glo). The class given is cell-based. Conditions: for Selectivity index (SI) = IC50/MIC90: HepG2 IC50 / M. tuberculosis MIC90; for IC50: Homo sapiens, 48 h, HepG2, 2 days incubation, read-out: IC50 (concentration required to reduce the viability of HepG2 cells by 50%). On the technique in general: In ATP-based viability assays light output follows the ATP content of the culture.

Series [3] in a line: Turnover by mouse liver microsomes. The class given is in vitro ADME. As for the experimental part: (§1) Based on in silico ADME predictions, three compounds were chosen to cover a range of cLogP values and were evaluated for their in vitro microsomal stability (Table 7). Rapid metabolism of compound 44 was observed, in rodent and human liver microsomes. The para-OCF3 analog 48 was also rapidly metabolized. The amide (49) had improved in vitro microsomal stability, with only 12% loss after 30 min in mouse microsomes, 22% loss in rat microsomes and 31% loss in human microsomes. The difference in stability for these three compounds is probably due to presence of more than one oxidatively-labile carbon in 44 and 48 (both have a two carbon linker), while 49 has only one such soft spot, although these have not been confirmed with metabolite identification studies.
On the technique in general: Microsomes from liver hold many membrane-bound enzymes, among them those of drug oxidation.

Series [4] deals with Saccharomyces cerevisiae Y187. Kind of series: MIC99 on solid medium, S. cerevisiae. Particulars: YPD agar, 3–4 days.
Series [5] in a line: Fraction unbound in mouse plasma. The format is in vitro ADME. Particulars: read-out: Mouse Fu,pl (fraction unbound in plasma). From the text: Table 7 In vitro ADME and in vivo PK. | column: Mouse Fu,pl ^a
The nature of series [6]: Turnover by human liver microsomes. The class given is in vitro ADME. On the procedure: as §1
Series [7] has as its system Mycobacterium smegmatis mc^2155. The series can be described thus: MIC99 on solid medium, M. smegmatis. The class given is cell-based. Particulars: Mycolicibacterium smegmatis, 3–4 days.
Another series concerns Escherichia coli DH5α. Kind of series: MIC99 on solid medium, E. coli. The format is cell-based. Particulars: 24 h, LB agar, 1 day.
Series [8] relates to M. tuberculosis H37Rv. Kind of series: MIC99 on solid medium, M. tuberculosis. The format is cell-based, Mycobacterium tuberculosis. Particulars: solid medium 7H10-OADC, 4 weeks, lowest concentration yielding less than 1% growth.
Another series deals with M. tuberculosis. Kind of series: Kill kinetics against M. tuberculosis in liquid culture. The class given is cell-based, Mycobacterium tuberculosis. Conditions: for Kill of non-replicating M. tuberculosis: non-replicating bacteria (starvation conditions, PBS-Ty), over 14–21 days; for Activity against replicating M. tuberculosis (kill kinetics): replicating bacteria in 7H9-Tw-OADC, over 21 days.

The nature of series [9]: In vivo mouse PK after oral and intravenous administration. Conditions: male mice, oral 10 mg/kg. As for the experimental part:
The oral exposure of the three compounds was evaluated in male mice by comparing exposures following oral (PO) and intravenous (IV) administration of 10 and 1 mg/kg doses of compounds, respectively (Table 7).

The subject of series [10] is M. tuberculosis H37Rv. The series can be described thus: MIC90 against M. tuberculosis in liquid medium. The format is cell-based, Mycobacterium tuberculosis. Particulars: Mycobacterium tuberculosis, H37RV, 120 h; liquid medium 7H9-Tw-OADC, aerobic, 5 days; average ± SD of two independent experiments; read-out: MIC (MIC90, minimum concentration required to inhibit growth of M. tuberculosis by 90%).

Series [11] in a line: Turnover by rat liver microsomes. The class given is in vitro ADME. As for the experimental part: as §1
Setting [12] is: Mycobacterium tuberculosis, H37RV, 672 h.

By MIC99 is commonly meant the lowest concentration that inhibits either 99% of growth or 99% of the strains tested, depending on the study. Read a high MIC99 as weaker potency. By fraction unbound is commonly meant free concentration divided by total concentration. Usually Cmax stands for the maximum level reached in the sampled fluid or tissue. On to `FC(F)(F)Oc1ccc(CCNc2cc(-c3ccccc3)nc3ncnn23)cc1` [Compound 48, 5-Phenyl-N-(4-(trifluoromethoxy)phenethyl)-[1,2,4]triazolo[1,5-a]pyrimidin-7-amine], for which the MIC99 in series [1] is greater than 10 µM; in series [2], greater than 100 µM; in [7] it was greater than 10 µM; against Escherichia coli DH5α, greater than 10 µM; against M. tuberculosis H37Rv [8] (setting [12]) it was 1.6 µM (≈ 0.639 µg/mL); against M. tuberculosis H37Rv [8] it was less than 20 µM. For the same molecule, the “Selectivity index (SI) = IC50/MIC90” value with HepG2 cells is recorded as greater than 27. Besides, in the series on HepG2 cells, the IC50 was greater than 100 µM. For the same molecule, the “% turnover by liver microsomes in 30 min, Mouse” value (shortened to “% turnover … Mouse”) in series [3] is given as 52.1%. The “MIC99 S. cerevisiae” value in series [4] is greater than 10 µM. Moreover, the fraction unbound in [5] amounted to 0.007. Further, the “% turnover by liver microsomes in 30 min, Human” value (from here on “% turnover … Human”) in [6] is recorded as 32.8%. The “Kill of non-replicating M. tuberculosis” value in the series with M. tuberculosis is recorded as 2–3 log. Further, the “Activity against replicating M. tuberculosis (kill kinetics)” value (“Activity” for short) with M. tuberculosis is “static activity”. In [9], this molecule displayed a Cmax of 958 nM. Besides, in series [9], the “PO AUC” value is 2.75 µM·h. In addition, the “PO Tmax” value in series [9] is 0.75 h. Moreover, in series [9], the “PO t1/2” value is on record as 2.49 h. For the same molecule, in the series with M. tuberculosis H37Rv [10], the MIC90 came out at 3.9 ± 1.1 µM (≈ 1.56 µg/mL). Moreover, in [11], the “% turnover by liver microsomes in 30 min, Rat” value (“% turnover … Rat” for short) turned out to be 52.7%.
As usually defined, the melting point is the temperature of the solid-liquid transition. Turning to `COc1ccc(CCNc2cc(-c3ccccn3)nc3ncnn23)cc1` [Compound 16, N-(4-Methoxyphenethyl)-5-(pyridin-2-yl)-[1,2,4]triazolo[1,5-a]pyrimidin-7-amine], the melting point was 172 to 173 °C. The molecule also had an MIC99 in series [1] greater than 100 µM. Moreover, the MIC99 in series [2] was greater than 100 µM. Further, in the series on HepG2 cells, the “Selectivity index (SI) = IC50/MIC90” value is recorded as greater than 130 and the IC50 was greater than 100 µM. The “MIC99 S. cerevisiae” value in series [4] is greater than 100 µM. In series [7], this molecule came in with an MIC99 greater than 100 µM. In addition, the MIC99 against Escherichia coli DH5α was greater than 100 µM. The molecule also returned an MIC99 against M. tuberculosis H37Rv [8] (setting [12]) of 13 µM (≈ 4.5 µg/mL). The same molecule displayed an MIC99 with M. tuberculosis H37Rv [8] of less than 20 µM. Moreover, in the series on M. tuberculosis, the “Kill of non-replicating M. tuberculosis” value was 2–3 log and the “Activity” value is listed as “static activity”. Further, the MIC90 with M. tuberculosis H37Rv [10] stood at 0.83 ± 0.26 µM (≈ 0.288 µg/mL).
As for `Cc1ccc(CCNc2cc(-c3ccccc3)nc3ncnn23)cc1` [Compound 44, N-(4-Methylphenethyl)-5-phenyl-[1,2,4]triazolo[1,5-a]pyrimidin-7-amine], in the series with HepG2 cells, the “Selectivity index (SI) = IC50/MIC90” value is recorded as 43 and the IC50 is 53 µM. Further, the “% turnover … Mouse” value in [3] was 98.2%. In addition, the fraction unbound in series [5] was found to be 0.015. In addition, the “% turnover … Human” value in series [6] stood at 68.1%. Moreover, in [9], the Cmax came to 604 nM, the “PO Tmax” value amounted to 0.25 h and the “PO t1/2” value came to 1.05 h. The MIC90 in the series on M. tuberculosis H37Rv [10] was 1.4 ± 0.5 µM (≈ 0.461 µg/mL). In [11], the “% turnover … Rat” value worked out at 99.2%.
Turning to `COc1ccc(CC(=O)Nc2cc(-c3ccccc3)nc3ncnn23)cc1` [Compound 49, 2-(4-Methoxyphenyl)-N-(5-phenyl-[1,2,4]triazolo[1,5-a]pyrimidin-7-yl)acetamide], the MIC99 is greater than 10 µM in series [1]; greater than 10 µM in [2]; greater than 10 µM in [7]; greater than 10 µM against Escherichia coli DH5α; 3.1 µM (≈ 1.11 µg/mL) against M. tuberculosis H37Rv [8] (setting [12]); less than 20 µM with M. tuberculosis H37Rv [8]. The “Selectivity index (SI) = IC50/MIC90” value in the series with HepG2 cells is greater than 73. In addition, the IC50 in the series on HepG2 cells is greater than 100 µM. Besides, the “% turnover … Mouse” value in [3] is 12% and 12.5%. Moreover, the “MIC99 S. cerevisiae” value in series [4] is greater than 10 µM. In addition, the “% turnover … Human” value in series [6] is 31% and 30.6%. Also, the “Kill of non-replicating M. tuberculosis” value with M. tuberculosis is 2–3 log. For the same molecule, in the series with M. tuberculosis, the “Activity” value is “static activity”. For the same molecule, in [9], the Cmax is 62.8 nM. Also, in series [9], the “PO AUC” value stood at 0.187 µM·h. The “PO Tmax” value in [9] was 1.5 h. For the same molecule, the MIC90 with M. tuberculosis H37Rv [10] amounted to 1.5 ± 0.7 µM (≈ 0.539 µg/mL). For the same molecule, the “% turnover … Rat” value in series [11] was 22% and 21.8%.
Molecule `COc1ccc(CCNc2cc(C)nc3ncnn23)cc1` [Compound 20, N-(4-Methoxyphenethyl)-5-methyl-[1,2,4]triazolo[1,5-a]pyrimidin-7-amine] registered a melting point of 129 to 130 °C. Also, the IC50 in the series on HepG2 cells is greater than 100 µM. Also, in the series on M. tuberculosis H37Rv [10], the MIC90 was greater than 20 µM.
In the same order, the values of `COc1ccc(CCNc2cc(-c3ccc(Cl)cc3)nc3ncnn23)cc1` [Compound 11, 5-(4-Chlorophenyl)-N-(4-methoxyphenethyl)-[1,2,4]triazolo[1,5-a]pyrimidin-7-amine] are 178 to 180 °C, 65 µM and greater than 20 µM.
Consider `COc1ccc(CC(=O)Nc2cc(-c3ccccc3)nc3ncnn23)cc1OC` [Compound 50, 2-(3,4-Dimethoxyphenyl)-N-(5-phenyl-[1,2,4]triazolo[1,5-a]pyrimidin-7-yl)acetamide], for which the melting point was in the range of 202 to 204 °C. In addition, in the series on HepG2 cells, the “Selectivity index (SI) = IC50/MIC90” value is recorded as greater than 10 and the IC50 was greater than 100 µM. Moreover, the MIC90 in the series with M. tuberculosis H37Rv [10] worked out at 10 ± 1.1 µM (≈ 3.89 µg/mL).
In turn, `c1ccc(-c2cc(NCCc3cccnc3)n3ncnc3n2)cc1` [Compound 42, 5-Phenyl-N-(2-(pyridin-3-yl)ethyl)-[1,2,4]triazolo[1,5-a]pyrimidin-7-amine] registered a melting point of 169 to 171 °C. The IC50 with HepG2 cells was greater than 100 µM. In addition, the MIC90 in the series on M. tuberculosis H37Rv [10] was greater than 20 µM.
In the same order, the values of `c1ccc(-c2cc(NCCc3ccncc3)n3ncnc3n2)nc1` [Compound 54, 5-(Pyridin-2-yl)-N-(2-(pyridin-4-yl)ethyl)-[1,2,4]triazolo[1,5-a]pyrimidin-7-amine] are 201 to 202 °C, greater than 100 µM and greater than 20 µM.
In the case of `COc1ccc(CCNc2cc(C3CCC3)nc3ncnn23)cc1` [Compound 23, 5-Cyclobutyl-N-(4-methoxyphenethyl)-[1,2,4]triazolo[1,5-a]pyrimidin-7-amine], the melting point is 99 to 100 °C. In addition, in the series on HepG2 cells, the “Selectivity index (SI) = IC50/MIC90” value was greater than 34 and the IC50 is greater than 100 µM. The MIC90 in the series with M. tuberculosis H37Rv [10] turned out to be 2.9 ± 0.71 µM (≈ 0.938 µg/mL).
Turning to `CCCCNc1cc(-c2ccccc2)nc2ncnn12` [Compound 32, N-Butyl-5-phenyl-[1,2,4]triazolo[1,5-a]pyrimidin-7-amine], the melting point lay in the range of 125 to 126 °C. Also, the IC50 in the series on HepG2 cells is 98 µM. Moreover, in the series with M. tuberculosis H37Rv [10], the MIC90 was greater than 20 µM.
